The text below walks through data of patent publication US6040303A, “7-phenyl-1, 4-diazepane compounds, process for their preparation, and pharmaceutical compositions containing them” (Solvay Pharmaceuticals GmbH, priority 1997, dated 2000).

For assay [1], the target named is T1, human NK-1 receptors (Homo sapiens, UniProt P25103).
T1 construct: expressed in transfected cells; host or cells: CHO cells (membrane preparation)
Description: Binding affinity to human NK-1 receptors ([3H]-substance P displacement, membranes of CHO cells). To be noted: membrane preparation of CHO cells expressing human NK-1 receptor, Ki calculated from IC50, read-out: In vitro binding to human NK-1 receptors - Ki value. The procedure:
1. Determination of the binding power of the test substances to NK-1 receptors.
The affinity of the test substances to human NK-1 receptors was measured in vitro, and the inhibition of the binding of the physiological neurokinin substance P to neurokinin-1 receptors was determined.
The receptor binding studies were performed with [^3 H]-substance P as ligand. For the binding test, different samples of a membrane preparation of CHO cells (=egg cells of the Chinese hamster, […]), which express the human NK-1 receptor, were incubated with a solution of the marked ligand, with the incubation mixtures containing no test substance or additions of different concentrations of test substance. Then, bound and free ligands in each of the samples were separated with the aid of glass-fiber filtration. The fraction remaining in the filter was washed several times with buffer solution, and then the radioactivity of the fraction remaining in the filter was measured using a beta scintillation counter. That concentration which effects half maximum displacement of the bound ligand was determined as IC50 of the respective test substance. From this, the corresponding inhibition constant (Ki value) of the test substance was calculated.
The example numbers listed for the compounds of Formula I relate to the following preparative examples.

The subject of assay [2] is visceral sensitivity to pain in rats (distension-induced contractions of the abdominal muscles). Kind of assay: Influencing of the visceral sensitivity to pain: distension-induced abdominal contractions in rats. The class given is in vivo. To be noted: rat, subcutaneous, 20 minutes after administration. An excerpt:
3. Investigation of the activity of the compounds on the visceral sensitivity to pain in rats.
Visceral pain leads to visceral reactions which manifest themselves, inter alia, by contractions of the abdominal muscles. The number of contractions of the abdominal muscles occurring after a mechanical pain stimulus caused by distending the large intestine is thus a measurement for determining the visceral sensitivity to pain.
The inhibiting activity of the test substances on distension-induced abdominal contractions was tested in rats. The distension of the large intestine with an introduced balloon was used as the stimulus; the contraction of the abdominal muscles was measured as response. One hour after the sensitising of the large intestine by instillation of dilute acetic acid (0.6%, 1.5 ml), a latex balloon was introduced and inflated to 100 mbar for 10 minutes. During this time, the contractions of the abdominal muscles were counted. 20 minutes after subcutaneous administration of the test substance, this measurement was repeated. The activity of the test substance was calculated as a percentage reduction in the counted contractions compared with the control. The reductions in the number of abdominal contractions achieved with different doses of the test substance of Example 1 are listed in percentages, relative to the control values (=100%) measured before ingestion of the substance in the following Table 3.

Assay [3] relates to stool passage through the colon of the rat. Kind of assay: Influencing of colon passage: barium sulfate elimination after oral administration in rats. The class given is in vivo. As for the experimental part: 2. Investigation of the activity of the compounds on stool passage through the colon of the rat.
The effects of the test substances on the transport of stools through the large intestine were examined in rats after feeding. After feeding, the beginning of elimination and the mean dwell time of barium sulfate in the colon were determined as a measurement of the colon motility leading to elimination of stools.
After oral administration of the test substance, the animals were administered 2 ml of an 80% barium sulfate suspension via an artificial outlet at the caecum. The animals were placed in metabolism cages, and the faeces were collected at one hour intervals over 24 hours. The content of barium sulfate in the faeces was measured using radiography, and the beginning of elimination of barium sulfate and the mean retention time were determined therefrom. The delays in the beginning of elimination and prolongations of the mean residence time of the barium sulfate achieved in this experimental arrangement with various doses of the test substance of Example 1 can be seen from the following Table 2. The time interval up to the beginning of elimination and the mean retention time are given in percentages relative to the values obtained in a control test without test substance (=100%).

pKi: −log10 of the molar value.

T1 sequence (P25103 whole entry): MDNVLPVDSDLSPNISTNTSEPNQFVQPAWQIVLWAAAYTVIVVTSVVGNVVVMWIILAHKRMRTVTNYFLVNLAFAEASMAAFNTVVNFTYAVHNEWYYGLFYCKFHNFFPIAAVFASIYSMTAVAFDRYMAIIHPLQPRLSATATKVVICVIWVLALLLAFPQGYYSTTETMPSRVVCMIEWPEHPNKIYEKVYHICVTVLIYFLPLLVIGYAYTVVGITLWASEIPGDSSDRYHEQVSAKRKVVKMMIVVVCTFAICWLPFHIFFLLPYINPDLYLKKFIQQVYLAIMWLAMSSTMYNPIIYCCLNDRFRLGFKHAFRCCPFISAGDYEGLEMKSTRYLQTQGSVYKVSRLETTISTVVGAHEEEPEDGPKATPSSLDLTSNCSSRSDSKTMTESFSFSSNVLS

In the case of `COc1ccccc1CNCC(=O)N1CCC(c2ccccc2)N(C(=O)c2cc(C)cc(C)c2)CC1` (stereo not shown) [Example 4, 1-(3,5-dimethylbenzoyl)-4-{[N-(2-methoxybenzyl)amino]acetyl}-7-phenyl-1,4-diazepane], the pKi in assay [1] was 8.10.
For the compound `COc1ccccc1CN(C)CCCC(=O)N1CCC(c2ccccc2)N(C(=O)c2cc(C(F)(F)F)cc(C(F)(F)F)c2)CC1` (single isomer, unassigned; (-)) [Example 2, (-)-1-(3,5-bistrifluoromethylbenzoyl)-4-{[3-[N-(2-methoxybenzyl)-N-methyl]amino]propylcarbonyl}-7-phenyl-1,4-diazepane], the pKi in assay [1] was 8.00.
As for `COc1ccccc1CN(C)CCCC(=O)N1CCC(c2ccccc2)N(C(=O)c2cc(C(F)(F)F)cc(C(F)(F)F)c2)CC1` (stereo not shown) [Example 1, 1-(3,5-bistrifluoromethylbenzoyl)-4-{[3-[N-(2-methoxybenzyl)-N-methyl]amino]propylcarbonyl}-7-phenyl-1,4-diazepane], the “Reduction in the number of distension-induced contractions of the abdominal muscles in % relative to control value = 100%” value in assay [2] (10 μmole/kg) is 33%; in assay [2] (21.5 μmole/kg), 39%; in assay [2] (100 μmole/kg), 61%. For the same compound, the pKi in assay [1] is 7.92. Moreover, the “Mean retention time in % relative to control value = 100%” value is 98% in assay [3] (10 μmole/kg), 106% in assay [3] (21.5 μmole/kg) and 119% in assay [3] (100 μmole/kg). Besides, the “Time interval until beginning of elimination in % relative to control value = 100%” value in assay [3] (10 μmole/kg) was 100%; in assay [3] (21.5 μmole/kg) it was 115%; in assay [3] (100 μmole/kg), 138%.
Consider `COc1ccccc1CNCCCC(=O)N1CCC(c2ccccc2)N(C(=O)c2cc(C(F)(F)F)cc(C(F)(F)F)c2)CC1` (stereo not shown) [Example 14], for which the pKi in assay [1] is 8.00.
